Paper PMC12883167 (Bioorganic & medicinal chemistry letters, 2019)
“And” between values parts separate entries of the source, which are not always exact repeats. Equal entries are not always repeated. Numbered stars: 1 amine (or outer) side, 2 acyl side, 3 side chain; on linkers, the order of the positions; unused ones are H or OH. Square brackets hold non-standard residues; d marks the D form. Peptide text beside a SMILES is read from it. * marks the point of attachment. cisHyp = O=C(O)[C@@H]1C[C@H](O)CN1; Hyp = O=C(O)[C@@H]1C[C@@H](O)CN1; Chg = N[C@H](C(=O)O)C1CCCCC1; Phg = N[C@H](C(=O)O)c1ccccc1; Tle = CC(C)(C)[C@H](N)C(=O)O; NMeV = CN[C@H](C(=O)O)C(C)C; αMeP = C[C@@]1(C(=O)O)CCCN1; Pip = O=C(O)[C@@H]1CCCCN1; Ac6c = NC1(C(=O)O)CCCCC1; Ac5c = NC1(C(=O)O)CCCC1; Cbz = O=C(OCc1ccccc1)*; CO = O=C([*:1])[*:2]; Bz = O=C(c1ccccc1)*; NHPh = c1ccc(N*)cc1; CH2F = FC*

Legend:
[1] = tested on: OCI-Ly3 cells; test: OCI-Ly3 cell proliferation assay
[2] = target: T1, MALT1 protease (Homo sapiens, UniProt Q9UDY8); type: cell-based; details: Cell (Glo), GloSensor reporter, PMA/IO activated Raji cells
T1 sequence (Q9UDY8 1-824): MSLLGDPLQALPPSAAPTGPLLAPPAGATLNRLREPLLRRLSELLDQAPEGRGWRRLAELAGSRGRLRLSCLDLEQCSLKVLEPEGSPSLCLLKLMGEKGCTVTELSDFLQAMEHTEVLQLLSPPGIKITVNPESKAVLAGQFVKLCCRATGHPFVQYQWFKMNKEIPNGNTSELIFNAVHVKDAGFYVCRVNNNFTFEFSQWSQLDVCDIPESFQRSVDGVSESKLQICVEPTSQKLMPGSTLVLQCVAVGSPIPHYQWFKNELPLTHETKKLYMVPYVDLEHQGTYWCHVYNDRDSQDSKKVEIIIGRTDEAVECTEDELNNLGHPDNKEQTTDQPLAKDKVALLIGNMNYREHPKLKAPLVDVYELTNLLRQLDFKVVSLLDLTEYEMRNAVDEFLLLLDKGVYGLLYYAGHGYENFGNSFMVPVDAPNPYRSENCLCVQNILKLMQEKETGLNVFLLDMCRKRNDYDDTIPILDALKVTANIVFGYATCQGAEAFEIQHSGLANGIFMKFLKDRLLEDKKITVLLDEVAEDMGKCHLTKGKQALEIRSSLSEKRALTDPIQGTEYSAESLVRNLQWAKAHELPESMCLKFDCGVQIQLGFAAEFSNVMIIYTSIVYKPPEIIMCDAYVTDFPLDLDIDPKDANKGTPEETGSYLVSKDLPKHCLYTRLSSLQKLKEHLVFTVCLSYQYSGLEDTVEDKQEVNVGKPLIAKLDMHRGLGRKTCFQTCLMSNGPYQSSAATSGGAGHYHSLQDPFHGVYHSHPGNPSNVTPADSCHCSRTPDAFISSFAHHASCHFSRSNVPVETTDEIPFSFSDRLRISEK

[3] = tested on: ABC-DLBCL xenograft models; details: two ABC-DLBCL xenograft models ref 20; cited from earlier work
[4] = Plasma levels upon IV and IP dosing in mice; type: in vivo
[5] = tested on: trypsin; test: Protease selectivity profiling, trypsin; type: biochemical; details: at 100 nM
[6] = target: T2, MALT1 (Homo sapiens, UniProt Q9UDY8); details: PD studies ref 20; cited from earlier work
T2 sequence (Q9UDY8 1-824): T1 sequence (Q9UDY8 1-824)

[7] = tested on: calpain; test: Protease selectivity profiling, calpain; type: biochemical; details: at 100 nM
[8] = target: cathepsin B (Homo sapiens, UniProt P07858); test: Protease selectivity profiling, cathepsin B; type: biochemical; details: at 100 nM
[9] = target: cathepsin S (Homo sapiens, UniProt P25774); test: Protease selectivity profiling, cathepsin S; type: biochemical; details: at 100 nM
Chain of cathepsin S (P25774 115-331, species assumed): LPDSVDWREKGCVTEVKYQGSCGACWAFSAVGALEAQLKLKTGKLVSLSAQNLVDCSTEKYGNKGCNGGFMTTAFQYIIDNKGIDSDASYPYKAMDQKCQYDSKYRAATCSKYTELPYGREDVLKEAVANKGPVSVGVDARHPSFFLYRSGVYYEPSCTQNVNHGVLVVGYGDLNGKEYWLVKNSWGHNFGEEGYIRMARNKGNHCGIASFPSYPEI

[10] = tested on: panel of 26 proteases, primarily caspases and cathepsins; test: Selectivity panel of 26 proteases; type: biochemical; details: profiling at lower concentrations
[11] = tested on: RelB cleavage (MALT1 protease activity) in OCI-Ly3 cells; test: Inhibition of RelB cleavage in OCI-Ly3 cells by Western blot; type: cell-based; details: at 20 μM

Row | SMILES | IC50 [2] | further results
1 | CN[C@H](C(=O)N1CCC[C@H]1C(=O)N[C@@H](CCCNC(=N)N)C(=O)CF)C(C)C [Compound 3] (H-[NMeV]-Pro-Arg-CH2F) | > 20000 nM | activity in the cell (proliferation) assay, in words [1]: inactive
2 | CC(C)[C@H](NC(=O)OCc1ccccc1)C(=O)N1CCC[C@H]1C(=O)N[C@@H](CCCNC(=N)N)C(=O)CF [Compound 4, Z-VPR-fmk] (Cbz-Val-Pro-Arg-CH2F) | 1960 nM | –
3 | CC(C)[C@@H](C(=O)N1CCC[C@H]1C(=O)N[C@@H](CCCNC(=N)N)C(=O)CF)N(C)C(=O)OCc1ccccc1 [Compound 5] (Cbz-[NMeV]-Pro-Arg-CH2F) | 3000 nM | –
4 | CC(C)[C@H](NC(=O)c1ccccc1)C(=O)N1CCC[C@H]1C(=O)N[C@@H](CCCNC(=N)N)C(=O)CF [Compound 19] (Bz-Val-Pro-Arg-CH2F) | 640 nM | –
5 | CC(C)[C@H](NC(=O)c1ccccc1Br)C(=O)N1CCC[C@H]1C(=O)N[C@@H](CCCNC(=N)N)C(=O)CF [Compound 20] | 1110 nM | –
6 | CC(C)[C@H](NC(=O)c1cccc(Br)c1)C(=O)N1CCC[C@H]1C(=O)N[C@@H](CCCNC(=N)N)C(=O)CF [Compound 21] | 180 nM | –
7 | CC(C)[C@H](NC(=O)c1ccc(Br)cc1)C(=O)N1CCC[C@H]1C(=O)N[C@@H](CCCNC(=N)N)C(=O)CF [Compound 22] | 71 nM and 70 nM | effects on tumor growth [3]: moderate effects on tumor growth; plasma levels [4]: moderate plasma levels for several hours; potency against trypsin [5]: > 80%; in vivo inhibition of MALT1 activity [6]: in vivo inhibition of MALT1 activity
8 | CC(C)[C@H](NC(=O)c1ccc(Cl)cc1)C(=O)N1CCC[C@H]1C(=O)N[C@@H](CCCNC(=N)N)C(=O)CF [Compound 23] | 180 nM | –
9 | CC(C)[C@H](NC(=O)c1ccc(C#N)cc1)C(=O)N1CCC[C@H]1C(=O)N[C@@H](CCCNC(=N)N)C(=O)CF [Compound 24] | 710 nM | –
10 | CC(C)[C@H](NC(=O)c1ccc(C(F)(F)F)cc1)C(=O)N1CCC[C@H]1C(=O)N[C@@H](CCCNC(=N)N)C(=O)CF [Compound 25] | 230 nM | –
11 | COc1ccc(C(=O)N[C@H](C(=O)N2CCC[C@H]2C(=O)N[C@@H](CCCNC(=N)N)C(=O)CF)C(C)C)cc1 [Compound 26] | 800 nM | –
12 | CC(C)c1ccc(C(=O)N[C@H](C(=O)N2CCC[C@H]2C(=O)N[C@@H](CCCNC(=N)N)C(=O)CF)C(C)C)cc1 [Compound 27] | 70 nM | –
13 | CC(C)[C@H](NC(=O)C1CCCCC1)C(=O)N1CCC[C@H]1C(=O)N[C@@H](CCCNC(=N)N)C(=O)CF [Compound 28] | 640 nM | –
14 | CC(C)[C@H](NC(=O)Nc1ccccc1)C(=O)N1CCC[C@H]1C(=O)N[C@@H](CCCNC(=N)N)C(=O)CF [Compound 29] ({NHPh-CO}-Val-Pro-Arg-CH2F) | 170 nM | –
15 | CC(C)[C@H](NC(=O)Nc1ccc(Cl)cc1)C(=O)N1CCC[C@H]1C(=O)N[C@@H](CCCNC(=N)N)C(=O)CF [Compound 30] | 110 nM | –
16 | CC(C)C[C@H](NC(=O)OCc1ccccc1)C(=O)N1CCC[C@H]1C(=O)N[C@@H](CCCNC(=N)N)C(=O)CF [Compound 31] (Cbz-Leu-Pro-Arg-CH2F) | 3420 nM | –
17 | CC[C@H](C)[C@H](NC(=O)OCc1ccccc1)C(=O)N1CCC[C@H]1C(=O)N[C@@H](CCCNC(=N)N)C(=O)CF [Compound 32] (Cbz-Ile-Pro-Arg-CH2F) | 1860 nM | –
18 | N=C(N)NCCC[C@H](NC(=O)[C@@H]1CCCN1C(=O)[C@H](Cc1ccccc1)NC(=O)OCc1ccccc1)C(=O)CF [Compound 33] | 2030 nM | –
19 | N=C(N)NCCC[C@H](NC(=O)[C@@H]1CCCN1C(=O)[C@@H](NC(=O)OCc1ccccc1)C1CCCCC1)C(=O)CF [Compound 34] (Cbz-[Chg]-Pro-Arg-CH2F) | 150 nM | –
20 | CC(C)(C)[C@H](NC(=O)OCc1ccccc1)C(=O)N1CCC[C@H]1C(=O)N[C@@H](CCCNC(=N)N)C(=O)CF [Compound 35] (Cbz-[Tle]-Pro-Arg-CH2F) | 710 nM | –

Row | SMILES | IC50 [2] | further results
21 | N=C(N)NCCC[C@H](NC(=O)[C@@H]1CCCN1C(=O)[C@@H](NC(=O)OCc1ccccc1)c1ccccc1)C(=O)CF [Compound 36] (Cbz-[Phg]-Pro-Arg-CH2F) | 1430 nM | –
22 | N=C(N)NCCC[C@H](NC(=O)[C@@H]1CCCN1C(=O)C1(NC(=O)OCc2ccccc2)CCCCC1)C(=O)CF [Compound 37] (Cbz-[Ac6c]-Pro-Arg-CH2F) | 6000 nM | –
23 | N=C(N)NCCC[C@H](NC(=O)[C@@H]1CCCN1C(=O)C1(NC(=O)OCc2ccccc2)CCCC1)C(=O)CF [Compound 38] (Cbz-[Ac5c]-Pro-Arg-CH2F) | 5380 nM | –
24 | CC(C)[C@H](NC(=O)OCc1ccccc1)C(=O)N[C@@H](CO)C(=O)N[C@@H](CCCNC(=N)N)C(=O)CF [Compound 39] | 149 nM | –
25 | CC(C)[C@H](NC(=O)OCc1ccccc1)C(=O)N1CCCC[C@H]1C(=O)N[C@@H](CCCNC(=N)N)C(=O)CF [Compound 40] (Cbz-Val-[Pip]-Arg-CH2F) | 144 nM | –
26 | CC(C)[C@H](NC(=O)OCc1ccccc1)C(=O)N1C[C@H](O)C[C@H]1C(=O)N[C@@H](CCCNC(=N)N)C(=O)CF [Compound 41] (Cbz-Val-[Hyp]-Arg-CH2F) | 209 nM | –
27 | CC(C)[C@H](NC(=O)OCc1ccccc1)C(=O)N1C[C@@H](O)C[C@H]1C(=O)N[C@@H](CCCNC(=N)N)C(=O)CF [Compound 42] (Cbz-Val-[cisHyp]-Arg-CH2F) | 239 nM | –
28 | CC(C)[C@H](NC(=O)OCc1ccccc1)C(=O)N1CCC[C@@]1(C)C(=O)N[C@@H](CCCNC(=N)N)C(=O)CF [Compound 43] (Cbz-Val-[αMeP]-Arg-CH2F) | 873 nM | –
29 | CC(C)[C@H](NC(=O)c1ccc(Br)cc1)C(=O)N[C@@H](CO)C(=O)N[C@@H](CCCNC(=N)N)C(=O)CF [Compound 44] | – | activity against calpain [7]: active; activity against cathepsin B [8]: active; activity against cathepsin S [9]: active
30 | CC(C)[C@H](NC(=O)c1ccc(Br)cc1)C(=O)N1C[C@H](O)C[C@H]1C(=O)N[C@@H](CCCNC(=N)N)C(=O)CF [Compound 45] | 85 nM | –
31 | CC(C)[C@H](NC(=O)c1ccc(Br)cc1)C(=O)N1CCCC[C@H]1C(=O)N[C@@H](CCCNC(=N)N)C(=O)CF [Compound 46] | 327 nM | selectivity in protease panel [10]: the most selective compound; activity against cathepsin S [9]: highest activity
32 | CC(C)[C@H](NC(=O)c1ccc(Br)cc1)C(=O)N1CC[C@H]1C(=O)N[C@@H](CCCNC(=N)N)C(=O)CF [Compound 47] | 219 nM | –
33 | CC(C)[C@H](NC(=O)c1ccc(Br)cc1)C(=O)N1COC[C@H]1C(=O)N[C@@H](CCCNC(=N)N)C(=O)CF [Compound 48] | 77 nM | –
34 | CC(C)[C@H](NC(=O)c1ccc(Br)cc1)C(=O)N1CCOC[C@H]1C(=O)N[C@@H](CCCNC(=N)N)C(=O)CF [Compound 49] | 174 nM | –
35 | CC(C)[C@H](NC(=O)c1ccc(Br)cc1)C(=O)N1CCC[C@@H]1C(=O)N[C@@H](CCCNC(=N)N)C(=O)CF [Compound 50] | 17500 nM | –
36 | N=C(N)NCCC[C@H](NC(=O)[C@@H]1CCCN1C(=O)[C@@H](NC(=O)c1ccc(Br)cc1)C1CCCCC1)C(=O)CF [Compound 51] | 43 nM | –
37 | N=C(N)NCCC[C@H](NC(=O)[C@H](CO)NC(=O)[C@@H](NC(=O)c1ccc(Br)cc1)C1CCCCC1)C(=O)CF [Compound 52] | 87 nM | –
38 | N=C(N)NCCC[C@H](NC(=O)[C@@H]1C[C@@H](O)CN1C(=O)[C@@H](NC(=O)c1ccc(Br)cc1)C1CCCCC1)C(=O)CF [Compound 53] | 65 nM | –
39 | CC(C)[C@H](NC(=O)OCc1ccccc1)C(=O)N[C@@H](CCCNC(=N)N)C(=O)N1CCC[C@H]1C(=O)N[C@@H](CCCNC(=N)N)C(=O)CF [Z-VRPR-fmk, reference compound] | – | inhibition of RelB cleavage [11]: partial inhibition
